Data published in PubChem BioAssay (NCI).
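Protocol summary: plate cells (96-well), add compound at 5 concentrations, incubate 48 h, interpolate endpoints linearly. At the TGI there is no net growth.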

Tests used:
Assay in all cases: NCI anticancer screen, dose series, 48 h
[1] = test system: HCT-15 colon
[2] = test system: HOP-92 NSCLC
[3] = test system: MDA-N
[4] = test system: NCI-H460 lung
[5] = test system: OVCAR-4 ovarian
[6] = test system: PC-3 prostate
[7] = test system: SNB-19 CNS
[8] = test system: T-47D breast
[9] = test system: U251 CNS
[10] = test system: MALME-3M melanoma
[11] = test system: NCI-H522 lung
[12] = test system: OVCAR-8 ovarian

With CC(NC(=O)c1c(O)[nH]c(=S)[nH]c1=O)c1ccc([N+](=O)[O-])cc1 (centres undefined) the TGI [1] was over 100 µM, the TGI [2] was over 100 µM and the TGI [3] was over 100 µM. For the same compound, the TGI [4] was over 100 µM, the TGI [5] was over 100 µM and the TGI [6] was over 100 µM. The TGI [7] was over 100 µM, the TGI [8] was over 100 µM and the TGI [9] was over 100 µM.

For N#Cc1cc2c(cc1Cl)Sc1nnc(Nc3ccccc3)n1S2(=O)=O, the TGI [1] was 5.61 µM, the TGI [2] was 4.74 µM and the TGI [10] was 5 µM. It also gave a TGI [4] of 9.22 µM, a TGI [11] of 4.33 µM and a TGI [5] of 7.79 µM. The TGI [12] was 4.41 µM, the TGI [6] was 3.89 µM and the TGI [7] was 6.66 µM. It also gave a TGI [8] of 13.3 µM and a TGI [9] of 3.6 µM.

In the case of O=C1OCC2OC(=O)c3cc(O)c(O)c(O)c3-c3c(O)c(O)c(O)c4c3C(=O)OC(C2OC(=O)c2cc(O)c(O)c(O)c2-c2c1cc(O)c(O)c2O)C1OC(=O)C2C4=C(O)C(=O)C23Oc2cc(O)c4c(c2[C@H]13)O[C@H](c1ccc(O)c(O)c1)[C@@H](O)C4 (some centres undefined), the TGI [1] is reported as 44.7 µM, the TGI [2] is reported as over 100 µM and the TGI [10] is reported as 72.2 µM. For the same compound, the TGI [4] was over 100 µM, the TGI [11] was 50.4 µM and the TGI [5] was 43.5 µM. The TGI [12] was 58.5 µM, the TGI [6] was over 100 µM and the TGI [7] was over 100 µM. For the same compound, the TGI [8] was 74.8 µM and the TGI [9] was 42.7 µM.

Work on COCn1cnc2c(=O)nc(SC)n(-c3ccccc3)c21 yielded a TGI [1] of over 100 µM, a TGI [2] of over 100 µM and a TGI [10] of over 100 µM. The TGI [3] was over 100 µM, the TGI [11] was over 100 µM and the TGI [5] was over 100 µM. The TGI [12] was over 100 µM, the TGI [7] was over 100 µM and the TGI [8] was over 100 µM.

Compound COc1ccc(C2(CC(C)C)CCN(S(=O)(=O)c3ccc(C)cc3)C2)cc1OC (centres undefined) has a TGI [1] of over 100 µM, a TGI [3] of over 100 µM and a TGI [4] of over 100 µM. For the same compound, the TGI [11] was over 100 µM, the TGI [5] was over 100 µM and the TGI [6] was over 100 µM. For the same compound, the TGI [7] was over 100 µM, the TGI [8] was over 100 µM and the TGI [9] was over 100 µM.

COC(=O)N[C@H](C(=O)NC(OCc1ccccc1)C1COC(C)(C)O1)C(C)O[Si](C)(C)C(C)(C)C (some centres undefined) showed a TGI [1] of over 100 µM, a TGI [2] of over 100 µM and a TGI [10] of over 100 µM. It also gave a TGI [3] of over 100 µM, a TGI [4] of over 100 µM and a TGI [5] of over 100 µM. The TGI [12] was over 100 µM, the TGI [6] was over 100 µM and the TGI [7] was over 100 µM. It also gave a TGI [8] of over 100 µM and a TGI [9] of over 100 µM.

With CC(=O)OCCOCNC(=S)N/N=C/c1ccc([N+](=O)[O-])s1 the TGI [1] was over 100 µM, the TGI [2] was over 100 µM and the TGI [10] was over 100 µM. The TGI [4] was over 100 µM, the TGI [11] was 24.5 µM and the TGI [5] was over 100 µM. It also gave a TGI [12] of over 100 µM, a TGI [7] of over 100 µM and a TGI [9] of over 100 µM.

Compound CC(=O)O[C@]12CCCCCC1C1(O)C(O)CCCCC12 (some centres undefined) has a TGI [1] of over 100 µM, a TGI [10] of over 100 µM and a TGI [4] of over 100 µM. The TGI [11] was over 100 µM, the TGI [5] was over 100 µM and the TGI [12] was over 100 µM. For the same compound, the TGI [7] was over 100 µM and the TGI [9] was over 100 µM.

Compound CC1CC(Nc2ccc(Br)cc2)N(C(=O)c2ccc(Br)cc2)O1 (centres undefined) has a TGI [1] of over 10 µM, a TGI [10] of over 10 µM and a TGI [3] of over 10 µM. For the same compound, the TGI [4] was over 10 µM, the TGI [11] was over 10 µM and the TGI [5] was over 10 µM. The TGI [12] was over 10 µM, the TGI [6] was over 10 µM and the TGI [7] was over 10 µM. The TGI [8] was over 10 µM.

Nc1c(S(=O)(=O)c2ccccc2)c2nc3ccccc3nc2n2c1nc1ccccc12 gave a TGI [1] of over 100 µM, a TGI [2] of over 100 µM and a TGI [10] of over 80.9 µM. It also gave a TGI [4] of over 100 µM, a TGI [11] of over 100 µM and a TGI [5] of over 80.5 µM. The TGI [12] was over 63.4 µM, the TGI [7] was over 93.2 µM and the TGI [9] was over 47.5 µM.

COCCn1cnc2c(Cl)nc(Nc3ccccc3)nc21 was tested, and the TGI [1] was 69.1 µM, the TGI [4] was over 100 µM and the TGI [5] was 46.7 µM. It also gave a TGI [12] of 54.9 µM, a TGI [6] of 56.4 µM and a TGI [7] of over 100 µM. It also gave a TGI [8] of over 100 µM and a TGI [9] of over 100 µM.
